We go through nine molecules from PubChem BioAssay (NCI).

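The compound was tested at five concentrations on cells cultured in 96-well plates, with a 48-hour exposure period. At the GI50, growth is halved. TGI marks complete inhibition of growth.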

Test systems include CCRF-CEM leukemia; IGROV1 ovarian; OVCAR-8 ovarian; DU-145 prostate; SW-620 colon; OVCAR-5 ovarian; UO-31 renal; KM12 colon; NCI-H23 lung; COLO 205 colon.
Holding throughout (assay): NCI tumour cell line growth inhibition, 48 h

As for `CC1(C)N=C(N)N=C(N)N1c1cc(Cl)ccc1Cl`, the GI50 with CCRF-CEM leukemia was greater than 100 µM; in the assay on IGROV1 ovarian, 27.6 µM; in the assay with OVCAR-8 ovarian it was greater than 100 µM; in the assay with DU-145 prostate it was 28.3 µM; with SW-620 colon, 74.5 µM; in the assay with OVCAR-5 ovarian, greater than 100 µM. The GI50 in the assay on UO-31 renal, in the assay on KM12 colon, with NCI-H23 lung and in the assay with COLO 205 colon was greater than 100 µM throughout. Further, the TGI in the assay with CCRF-CEM leukemia is greater than 100 µM; in the assay on IGROV1 ovarian, 88.6 µM; in the assay with OVCAR-8 ovarian, greater than 100 µM; in the assay on DU-145 prostate it was greater than 100 µM; in the assay on SW-620 colon, greater than 100 µM; in the assay with OVCAR-5 ovarian, greater than 100 µM. Also, the TGI in the assay with UO-31 renal, with KM12 colon, in the assay with NCI-H23 lung and in the assay with COLO 205 colon was greater than 100 µM throughout.

In the case of `O=C(Nc1ccc(Cl)cc1)c1cc2ccccc2cc1O`, the GI50 in the assay on CCRF-CEM leukemia was 4.65 µM; with IGROV1 ovarian, 2.19 µM; in the assay on OVCAR-8 ovarian, 3.67 µM; in the assay on DU-145 prostate, 3.18 µM; with SW-620 colon, 3.62 µM; in the assay with OVCAR-5 ovarian, 4.07 µM. The GI50 in the assay with UO-31 renal was 2.03 µM; with KM12 colon it was 2.81 µM; in the assay on NCI-H23 lung it was 2 µM; in the assay with COLO 205 colon it was 3.22 µM. Moreover, the TGI in the assay on CCRF-CEM leukemia, with IGROV1 ovarian, with OVCAR-8 ovarian, in the assay on DU-145 prostate, in the assay with SW-620 colon and in the assay on OVCAR-5 ovarian was greater than 100 µM in each case. Moreover, the TGI in the assay on UO-31 renal was greater than 100 µM; in the assay with KM12 colon, greater than 100 µM; with NCI-H23 lung, greater than 100 µM; in the assay with COLO 205 colon it was 18.7 µM.

`O=C(Oc1ccc(CCl)cc1)c1ccccc1`: the GI50 in the assay with CCRF-CEM leukemia is 0.0335 µM; with IGROV1 ovarian, 0.212 µM; in the assay on OVCAR-8 ovarian, 0.155 µM; in the assay with DU-145 prostate, 0.269 µM; in the assay with SW-620 colon, 0.103 µM; with OVCAR-5 ovarian, 0.161 µM. Moreover, the GI50 was 0.173 µM in the assay on UO-31 renal, 0.166 µM in the assay with KM12 colon, 0.322 µM in the assay with NCI-H23 lung and 0.136 µM with COLO 205 colon. Besides, the TGI with CCRF-CEM leukemia amounted to 0.146 µM; in the assay on IGROV1 ovarian, 0.419 µM; in the assay on OVCAR-8 ovarian, 0.291 µM; in the assay on DU-145 prostate, 0.746 µM; in the assay on SW-620 colon it was 0.247 µM; in the assay with OVCAR-5 ovarian it was 0.302 µM. The TGI is 0.319 µM in the assay on UO-31 renal, 0.323 µM in the assay with KM12 colon, 1.15 µM in the assay with NCI-H23 lung and 0.307 µM in the assay on COLO 205 colon.

Regarding `COC(=O)Nc1nc2ccccc2c(=O)[nH]1`, the TGI with CCRF-CEM leukemia, with IGROV1 ovarian, with OVCAR-8 ovarian, in the assay with DU-145 prostate, in the assay with SW-620 colon and with OVCAR-5 ovarian was greater than 100 µM throughout. Besides, the TGI in the assay with UO-31 renal, in the assay with KM12 colon, with NCI-H23 lung and in the assay on COLO 205 colon was greater than 100 µM in each case.

Consider `S=C(Nc1ccc(Cl)cc1)Nc1ccc(-c2nc3ccccc3[nH]2)cc1`, for which the GI50 in the assay with CCRF-CEM leukemia was 4.37 µM; with IGROV1 ovarian, 7.02 µM; in the assay with OVCAR-8 ovarian, 14.3 µM; in the assay with DU-145 prostate, 12.1 µM; in the assay with SW-620 colon, 22.4 µM; in the assay with OVCAR-5 ovarian, 20.4 µM. For the same molecule, the GI50 in the assay with UO-31 renal is 5.86 µM; with KM12 colon, 4.45 µM; in the assay on NCI-H23 lung, 3.89 µM; with COLO 205 colon, 2.65 µM. Besides, the TGI with CCRF-CEM leukemia was greater than 63.6 µM; with IGROV1 ovarian, 23.7 µM; with OVCAR-8 ovarian, greater than 59.7 µM; with SW-620 colon, greater than 58.8 µM; in the assay with OVCAR-5 ovarian, 40.8 µM; with UO-31 renal, greater than 29.4 µM. In addition, the TGI with KM12 colon was greater than 62 µM; in the assay on NCI-H23 lung, 17.5 µM; in the assay on COLO 205 colon, greater than 35.8 µM.

Regarding `C[C@H]1CCC/C=C/[C@@H]2C[C@H](O)C[C@H]2[C@H](O)[C@@H](S(=O)CCN(C)C)CC(=O)O1` (stereo partly specified), the GI50 in the assay on CCRF-CEM leukemia is 0.388 µM; with IGROV1 ovarian, 0.337 µM; in the assay on OVCAR-8 ovarian, 0.0966 µM; in the assay with DU-145 prostate, 0.555 µM; in the assay with SW-620 colon it was 0.277 µM; with OVCAR-5 ovarian, 0.367 µM. In addition, the GI50 was 0.184 µM in the assay on UO-31 renal, 0.0351 µM with KM12 colon, 0.229 µM with NCI-H23 lung and 0.107 µM in the assay on COLO 205 colon. The TGI in the assay on CCRF-CEM leukemia is greater than 100 µM; with DU-145 prostate, greater than 100 µM; in the assay with OVCAR-5 ovarian it was greater than 100 µM; in the assay on UO-31 renal it was greater than 100 µM; in the assay with KM12 colon it was 0.154 µM; in the assay on NCI-H23 lung, greater than 38.8 µM. Further, the TGI in the assay with COLO 205 colon amounted to 0.876 µM.

Take `CC(C)(O)C1OCC(C2CCC3(C)C4=CCC5C(C)(C)C(O)CCC5(C)C4CCC23C)CC1O` (stereo unspecified): the TGI in the assay with CCRF-CEM leukemia was greater than 100 µM; with IGROV1 ovarian it was 31 µM; in the assay on OVCAR-8 ovarian it was 27.9 µM; in the assay on DU-145 prostate, 31.1 µM; in the assay on SW-620 colon, 28.5 µM; in the assay with OVCAR-5 ovarian, 39.6 µM. Further, the TGI in the assay with UO-31 renal came to 41.8 µM; in the assay with KM12 colon, 27 µM; in the assay with NCI-H23 lung, 81.3 µM; with COLO 205 colon, 31.5 µM.

For the molecule `COc1ccc(-c2nc(-c3cn(C)c4ncccc34)cs2)cc1`, the GI50 with CCRF-CEM leukemia is greater than 100 µM; in the assay with IGROV1 ovarian, greater than 100 µM; in the assay with OVCAR-8 ovarian, greater than 100 µM; with DU-145 prostate it was greater than 100 µM; in the assay on SW-620 colon, 19.3 µM; with OVCAR-5 ovarian, greater than 100 µM. For the same molecule, the GI50 in the assay with UO-31 renal was greater than 100 µM; in the assay with KM12 colon, 8.01 µM; in the assay with NCI-H23 lung, greater than 100 µM; in the assay with COLO 205 colon, 29 µM. The TGI in the assay with CCRF-CEM leukemia, with IGROV1 ovarian, in the assay on OVCAR-8 ovarian, with DU-145 prostate, with SW-620 colon and in the assay on OVCAR-5 ovarian was greater than 100 µM throughout. Further, the TGI in the assay on UO-31 renal, in the assay on KM12 colon, with NCI-H23 lung and in the assay with COLO 205 colon was greater than 100 µM in each case.

Turning to `COc1ccc(-c2nc(-c3ccccc3)c(-c3ccccc3)n2C2CC2)cc1OC1CCCC1`, the GI50 in the assay with CCRF-CEM leukemia is 33.3 µM; in the assay on IGROV1 ovarian, 77.8 µM; in the assay with OVCAR-8 ovarian, 66.6 µM; in the assay with DU-145 prostate, 94.5 µM; in the assay on SW-620 colon, 53.7 µM; in the assay with OVCAR-5 ovarian, greater than 165 µM. Also, the GI50 in the assay with UO-31 renal is 64.6 µM; in the assay on KM12 colon, 50.9 µM; in the assay on NCI-H23 lung, greater than 165 µM; with COLO 205 colon, 51.3 µM. Besides, the TGI with CCRF-CEM leukemia, in the assay with IGROV1 ovarian, with OVCAR-8 ovarian, with DU-145 prostate, in the assay with SW-620 colon and in the assay on OVCAR-5 ovarian was greater than 165 µM throughout. In addition, the TGI in the assay on UO-31 renal, with KM12 colon, in the assay on NCI-H23 lung and with COLO 205 colon was greater than 165 µM in each case.
